Patent publication US20240400584A1, “COMPOUNDS AND METHODS FOR MODULATING SPLICING” (REMIX THERAPEUTICS INC., priority 2021, published 2024)

Tests used:
[1] = test system: HTT; assay: Gene panel canonical junction qPCR assay, HTT CJ mRNA (Table 7); format: cell-based, human; conditions: Homo sapiens, read-out: HTT CJ mRNA decrease IC50
In short: (§1)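 A673 or K562 cells were treated with compound; lysates went through cDNA synthesis and RT-qPCR, with a probe or primer spanning the canonical exon–exon junction. ΔCt vs housekeeper (GAPDH, GUSB or PPIA), normalized to DMSO (2^(−ΔΔCt)), converted to percentage response; IC50 from 4-parameter logistic fit of CJ decrease.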

[2] = test system: SMN2; assay: Gene panel canonical junction qPCR assay, SMN2 CJ mRNA (Table 7); format: cell-based; conditions: Homo sapiens, read-out: SMN2 CJ mRNA decrease IC50
In short: as §1

[3] = test system: MYB; assay: Gene panel canonical junction qPCR assay, MYB CJ mRNA (Table 7); format: cell-based; conditions: Homo sapiens, read-out: MYB CJ mRNA decrease IC50
In short: as §1

[4] = test system: Target C; assay: Gene panel canonical junction qPCR assay, Target C CJ mRNA (Table 7); format: cell-based, human; conditions: Homo sapiens, read-out: Target C CJ mRNA decrease IC50
In short: as §1

[5] = test system: HiBit-tagged HTT in K562 cells; assay: HiBiT protein abundance assay, HTT; format: cell-based, human; conditions: HiBiT-modified K562 cells, 24 hours, luminescence
In short: (§2)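 K562 lines carrying endogenous HiBiT-tagged targets were treated 24 h at 37 °C with compound (10-point 3-fold dilution, top 10 μM final, DMSO ≤0.25%). Abundance read by Nano-Glo HiBiT lytic luminescence against unmodified-cell and DMSO controls. IC50 interpolated at 50% response from a 4-parameter logistic fit.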

[6] = test system: HiBit-tagged Target C in K562 cells; assay: HiBiT protein abundance assay, Target C; format: cell-based, human; conditions: HiBiT-modified K562 cells, 24 hours, luminescence
In short: as §2

For `Cc1cnc(-c2ccc3c(c2)COc2nc(N(C)[C@@H]4C[C@H]5CC[C@@H](C4)N5)ccc2-3)o1` [Compound 206], which IC50 [1] is on record?
Its IC50 is 0.1 to 1 µM.

And the IC50 [2]?
Its IC50 is 0.1 to 1 µM.

And the IC50 [3]?
Its IC50 is 0.1 to 1 µM.

And the IC50 [4]?
Its IC50 is 1 to 10 µM.

And the IC50 [5]?
Its IC50 is < 0.1 µM.

And the IC50 [6]?
Its IC50 is 0.1 to 1 µM.

Which results are given for `CN(c1ccc2c(n1)OCc1cc(-c3ccn(C)c(=O)c3)ccc1-2)[C@@H]1C[C@H]2CC[C@@H](C1)N2` [Compound 153]?
IC50 [1]: < 0.1 µM; IC50 [2]: < 0.1 µM; IC50 [3]: 0.1 to 1 µM; IC50 [4]: < 0.1 µM; IC50 [5]: < 0.1 µM; IC50 [6]: < 0.1 µM

Which IC50 [1] does the source give for `CN(c1ccc2c(n1)OCc1cc(-c3cn[nH]c3)ccc1-2)C1CC(C)(C)NC(C)(C)C1` [Compound 147] here?
Its IC50 is 0.1 to 1 µM.

What about the IC50 [2] of the same compound?
Its IC50 is > 10 µM.

What about the IC50 [3] of the same compound?
Its IC50 is 1 to 10 µM.

And the IC50 [4]?
Its IC50 is 0.1 to 1 µM.

What about the IC50 [5] of the same compound?
Its IC50 is 0.1 to 1 µM.

What about the IC50 [6] of the same compound?
The IC50 was 0.1 to 1 µM.

Which IC50 [1] does the source give for `CN(c1cnc2c(n1)OCc1cc(-c3cn[nH]c3)ccc1-2)[C@@H]1C[C@H]2CC[C@@H](C1)N2` [Compound 144] here?
Its IC50 is 0.1 to 1 µM.

What about the IC50 [2] of the same compound?
The IC50 was > 10 µM.

What about the IC50 [3] of the same compound?
The IC50 was 0.1 to 1 µM.

And the IC50 [4]?
The IC50 was 0.1 to 1 µM.

What about the IC50 [5] of the same compound?
The IC50 was < 0.1 µM.

What about the IC50 [6] of the same compound?
The IC50 was < 0.1 µM.

Which results are given for `COc1cc(-c2ccc3c(c2)COc2nc(N4CCC(N(C)C5CCC5)C4)ccc2-3)cnn1` (stereo not drawn) [Compound 307, N-cyclobutyl-1-[8-(6-methoxypyridazin-4-yl)-6H-isochromeno[3,4-b]pyridin-3-yl]-N-methylpyrrolidin-3-amine]?
IC50 [1]: 0.1 to 1 µM; IC50 [2]: < 0.1 µM; IC50 [3]: 1 to 10 µM; IC50 [4]: 0.1 to 1 µM; IC50 [5]: 0.1 to 1 µM; IC50 [6]: 0.1 to 1 µM
